# From patent US20230085307A1, “PYRIDAZINONE COMPOUND AND HERBICIDE” (NISSAN CHEMICAL CORPORATION, priority 2019, published 2023)
# Columns and labels:
# persian speedwell [1] = assay: Test Example 5: herbicidal effect by foliage application, plastic box (Table 20, symbol R); type: in vivo, Persian speedwell (Veronica persica); conditions: foliage application, AAH 320 g/ha, three weeks after application
# Method in brief: (§1)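 Plants were sown into sterilized diluvial soil under about 1.5 cm cover and kept in a greenhouse at 25° C. to 30° C. Fourteen days on, foliage received an even spray of the diluted emulsion. Herbicidal or crop effect was judged three weeks afterwards.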
# blackgrass [2] = assay: Test Example 5: herbicidal effect by foliage application, plastic box (Table 20, symbol J); type: in vivo, blackgrass (Alopecurus myosuroides); conditions: foliage application, AAH 320 g/ha, three weeks after application
# Method in brief: as §1
# barnyard grass [3] = assay: Test Example 5: herbicidal effect by foliage application, plastic box (Table 20, symbol H); type: in vivo, barnyard grass (Echinochloa crus-galli); conditions: foliage application, AAH 320 g/ha, three weeks after application
# Method in brief: as §1
# Italian ryegrass [4] = assay: Test Example 4: herbicidal effect by soil treatment (Table 19, symbol K); type: in vivo, Italian ryegrass (Lolium multiflorum); conditions: AAH 320 g/ha
# Method in brief: (§2)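 In this soil treatment, the formulated compound reached the seeds only through the soil: seeds were buried about 1.5 cm deep in sterilized diluvial soil, then the diluted emulsion was sprayed over the surface. After three weeks at 25° C. to 30° C. in a greenhouse, effects were graded on criteria from an earlier test.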
# persian speedwell [5] = assay: Test Example 4: herbicidal effect by soil treatment (Table 19, symbol R); type: in vivo, Persian speedwell (Veronica persica); conditions: AAH 320 g/ha
# Method in brief: as §2
# Italian ryegrass [6] = assay: Test Example 5: herbicidal effect by foliage application, plastic box (Table 20, symbol K); type: in vivo, Italian ryegrass (Lolium multiflorum); conditions: foliage application, AAH 320 g/ha, three weeks after application
# Method in brief: as §1
# green foxtail [7] = assay: Test Example 4: herbicidal effect by soil treatment (Table 19, symbol G); type: in vivo, green foxtail (Setaria viridis); conditions: AAH 320 g/ha
# Method in brief: as §2
# lambsquarters [8] = assay: Test Example 4: herbicidal effect by soil treatment (Table 19, symbol O); type: in vivo, lambsquarters (Chenopodium album); conditions: AAH 320 g/ha
# Method in brief: as §2
# wild oat [9] = assay: Test Example 4: herbicidal effect by soil treatment (Table 19, symbol I); type: in vivo, wild oat (Avena fatua); conditions: AAH 320 g/ha
# Method in brief: as §2
# velvetleaf [10] = assay: Test Example 4: herbicidal effect by soil treatment (Table 19, symbol M); type: in vivo, velvetleaf (Abutilon theophrasti); conditions: AAH 320 g/ha
# Method in brief: as §2
# rice flat sedge = assay: Test Example 3: herbicidal effect by foliage application, Wagner pot (Table 18, symbol E); type: in vivo, rice flat sedge (Cyperus iria); conditions: 320 g/ha
# Method in brief: (§3)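 Plants were sown in alluvial soil held under 0.1–0.5 cm standing water and grown 14 days in a greenhouse at 25–30 °C. An emulsifiable formulation, water-diluted to the set dose, was then sprayed onto the foliage, and effects were scored three weeks later using previously defined criteria.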
# lambsquarters [11] = assay: Test Example 5: herbicidal effect by foliage application, plastic box (Table 20, symbol O); type: in vivo, lambsquarters (Chenopodium album); conditions: foliage application, AAH 320 g/ha, three weeks after application
# Method in brief: as §1
# southern crabgrass [12] = assay: Test Example 4: herbicidal effect by soil treatment (Table 19, symbol F); type: in vivo, southern crabgrass (Digitaria ciliaris); conditions: AAH 320 g/ha
# Method in brief: as §2
# barnyard grass [13] = assay: Test Example 3: herbicidal effect by foliage application, Wagner pot (Table 18, symbol H); type: in vivo, barnyard grass (Echinochloa crus-galli); conditions: 320 g/ha
# Method in brief: as §3
# chickweed [14] = assay: Test Example 5: herbicidal effect by foliage application, plastic box (Table 20, symbol P); type: in vivo, common chickweed (Stellaria media); conditions: foliage application, AAH 320 g/ha, three weeks after application
# Method in brief: as §1
# redroot pigweed [15] = assay: Test Example 4: herbicidal effect by soil treatment (Table 19, symbol N); type: in vivo, redroot pigweed (Amaranthus retroflexus); conditions: AAH 320 g/ha
# Method in brief: as §2
# late watergrass = assay: Test Example 1: herbicidal activity, application before weed generation under submerged conditions (Table 16, symbol A); type: in vivo, late watergrass (Echinochloa oryzicola); conditions: 320 g/ha applied herbicide
# Method in brief: (§4)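 Alluvial soil was flooded to 4 cm depth, weed seeds were sown mixed and 2.5-leaf rice seedlings were transplanted. On sowing day, the compound's emulsion, diluted in water to a set dose, was applied to the water surface. Plants grew at 25–30 °C and were scored 0–5 after three weeks.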
# blackgrass [16] = assay: Test Example 4: herbicidal effect by soil treatment (Table 19, symbol J); type: in vivo, blackgrass (Alopecurus myosuroides); conditions: AAH 320 g/ha
# Method in brief: as §2
# windgrass [17] = assay: Test Example 5: herbicidal effect by foliage application, plastic box (Table 20, symbol L); type: in vivo, windgrass (Apera spica-venti); conditions: foliage application, AAH 320 g/ha, three weeks after application
# Method in brief: as §1
# windgrass [18] = assay: Test Example 4: herbicidal effect by soil treatment (Table 19, symbol L); type: in vivo, windgrass (Apera spica-venti); conditions: AAH 320 g/ha
# Method in brief: as §2
# chickweed [19] = assay: Test Example 4: herbicidal effect by soil treatment (Table 19, symbol P); type: in vivo, common chickweed (Stellaria media); conditions: AAH 320 g/ha
# Method in brief: as §2
# redroot pigweed [20] = assay: Test Example 5: herbicidal effect by foliage application, plastic box (Table 20, symbol N); type: in vivo, redroot pigweed (Amaranthus retroflexus); conditions: foliage application, AAH 320 g/ha, three weeks after application
# Method in brief: as §1
# Japanese bulrush = assay: Test Example 1: herbicidal activity, application before weed generation under submerged conditions (Table 16, symbol B); type: in vivo, Japanese bulrush (Schoenoplectus juncoides); conditions: 320 g/ha applied herbicide
# Method in brief: as §4
# oval-leafed pondweed = assay: Test Example 1: herbicidal activity, application before weed generation under submerged conditions (Table 16, symbol C); type: in vivo, oval-leafed pondweed (Monochoria vaginalis); conditions: 320 g/ha applied herbicide
# Method in brief: as §4
# southern crabgrass [21] = assay: Test Example 5: herbicidal effect by foliage application, plastic box (Table 20, symbol F); type: in vivo, southern crabgrass (Digitaria ciliaris); conditions: foliage application, AAH 320 g/ha, three weeks after application
# Method in brief: as §1
# velvetleaf [22] = assay: Test Example 5: herbicidal effect by foliage application, plastic box (Table 20, symbol M); type: in vivo, velvetleaf (Abutilon theophrasti); conditions: foliage application, AAH 320 g/ha, three weeks after application
# Method in brief: as §1
# barnyard grass [23] = assay: Test Example 4: herbicidal effect by soil treatment (Table 19, symbol H); type: in vivo, barnyard grass (Echinochloa crus-galli); conditions: AAH 320 g/ha
# Method in brief: as §2
# wild oat [24] = assay: Test Example 5: herbicidal effect by foliage application, plastic box (Table 20, symbol I); type: in vivo, wild oat (Avena fatua); conditions: foliage application, AAH 320 g/ha, three weeks after application
# Method in brief: as §1
# Chinese sprangletop = assay: Test Example 3: herbicidal effect by foliage application, Wagner pot (Table 18, symbol D); type: in vivo, chinese sprangletop (Leptochloa chinensis); conditions: 320 g/ha
# Method in brief: as §3
# green foxtail [25] = assay: Test Example 5: herbicidal effect by foliage application, plastic box (Table 20, symbol G); type: in vivo, green foxtail (Setaria viridis); conditions: foliage application, AAH 320 g/ha, three weeks after application
# Method in brief: as §1
compound,measurement,setting,value
Cc1nn(C)c(=O)c(-c2c(-c3ccc(C(C)C)cc3)sc3ccccc23)c1O [1-125],"R: persian speedwell, herbicidal effect",persian speedwell [1],5 (Herbicidal rate of 90% or more (almost completely withered))
same,"J: blackgrass, herbicidal effect",blackgrass [2],2 (Herbicidal rate of 20% or more and less than 40%)
same,"H: barnyard grass, herbicidal effect",barnyard grass [3],5 (Herbicidal rate of 90% or more (almost completely withered))
same,"K: Italian ryegrass, herbicidal effect rating",Italian ryegrass [4],5 (Herbicidal rate of 90% or more (almost completely withered))
same,"R: persian speedwell, herbicidal effect rating",persian speedwell [5],5 (Herbicidal rate of 90% or more (almost completely withered))
same,"K: Italian ryegrass, herbicidal effect",Italian ryegrass [6],5 (Herbicidal rate of 90% or more (almost completely withered))
same,"G: green foxtail, herbicidal effect rating",green foxtail [7],3 (Herbicidal rate of 40% or more and less than 70%)
same,"O: lambsquarters, herbicidal effect rating",lambsquarters [8],5 (Herbicidal rate of 90% or more (almost completely withered))
same,"I: wild oat, herbicidal effect rating",wild oat [9],0 (Herbicidal rate of 5% or less (almost no effect))
same,"M: velvetleaf, herbicidal effect rating",velvetleaf [10],1 (Herbicidal rate of 5% or more and less than 20%)
same,"herbicidal effect on E (rice flat sedge), rating 0-5",rice flat sedge,5 (Herbicidal rate of 90% or more (almost completely withered))
same,"O: lambsquarters, herbicidal effect",lambsquarters [11],5 (Herbicidal rate of 90% or more (almost completely withered))
same,"F: southern crabgrass, herbicidal effect rating",southern crabgrass [12],1 (Herbicidal rate of 5% or more and less than 20%)
same,"herbicidal effect on H (barnyard grass), rating 0-5",barnyard grass [13],5 (Herbicidal rate of 90% or more (almost completely withered))
same,"P: chickweed, herbicidal effect",chickweed [14],5 (Herbicidal rate of 90% or more (almost completely withered))
same,"N: redroot pigweed, herbicidal effect rating",redroot pigweed [15],5 (Herbicidal rate of 90% or more (almost completely withered))
same,Herbicidal effect on A: late watergrass (grade 0-5),late watergrass,3 (Herbicidal rate of 40% or more and less than 70%)
same,"J: blackgrass, herbicidal effect rating",blackgrass [16],0 (Herbicidal rate of 5% or less (almost no effect))
same,"L: windgrass, herbicidal effect",windgrass [17],5 (Herbicidal rate of 90% or more (almost completely withered))
same,"L: windgrass, herbicidal effect rating",windgrass [18],0 (Herbicidal rate of 5% or less (almost no effect))
same,"P: chickweed, herbicidal effect rating",chickweed [19],1 (Herbicidal rate of 5% or more and less than 20%)
same,"N: redroot pigweed, herbicidal effect",redroot pigweed [20],5 (Herbicidal rate of 90% or more (almost completely withered))
same,Herbicidal effect on B: Japanese bulrush (grade 0-5),Japanese bulrush,0 (Herbicidal rate of 5% or less (almost no effect))
same,Herbicidal effect on C: oval-leafed pondweed (grade 0-5),oval-leafed pondweed,0 (Herbicidal rate of 5% or less (almost no effect))
same,"F: southern crabgrass, herbicidal effect",southern crabgrass [21],3 (Herbicidal rate of 40% or more and less than 70%)
same,"M: velvetleaf, herbicidal effect",velvetleaf [22],5 (Herbicidal rate of 90% or more (almost completely withered))
same,"H: barnyard grass, herbicidal effect rating",barnyard grass [23],3 (Herbicidal rate of 40% or more and less than 70%)
same,"I: wild oat, herbicidal effect",wild oat [24],0 (Herbicidal rate of 5% or less (almost no effect))
same,"herbicidal effect on D (Chinese sprangletop), rating 0-5",Chinese sprangletop,4 (Herbicidal rate of 70% or more and less than 90%)
same,"G: green foxtail, herbicidal effect",green foxtail [25],5 (Herbicidal rate of 90% or more (almost completely withered))
